Data on eleven molecules can be found in ChEMBL document CHEMBL1201862, “PubChem BioAssay data set” (2004).

Some test systems named below: 786-0; CCRF-CEM; SNB-19; A549; NCI-H522; SK-MEL-5; MOLT-4; HOP-62; TK-10; Malme-3M; HCC 2998; EKVX; KM12; CAKI-1.
Holding throughout (experiment): NCI anticancer screen, dose series, 48 h

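Growth conditions: 96-well plates. Treatment: test compound, 48 hours, 5 concentrations. Analysis: linear interpolation between bracketing concentrations; unreached endpoints set to highest concentration. GI50 = concentration required for 50% inhibition of growth.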 Activity calls are given as the source filed them. No stated cut-off is given here; in the data, active = GI50 up to about 1.1 µM and inactive = higher.

Turning to `O=C(OCCCl)C1OC(n2cc(F)c(=O)[nH]c2=O)CC1O` (configuration not stated), the GI50 in the experiment with 786-0, in the experiment with CCRF-CEM, in the experiment on SNB-19, in the experiment on A549, in the experiment with NCI-H522 and with SK-MEL-5 was > 100 µM (inactive) each time. The GI50 was > 100 µM (inactive) in the experiment on MOLT-4; > 100 µM (inactive) in the experiment with HOP-62; > 100 µM (inactive) in the experiment on TK-10; > 100 µM (inactive) with Malme-3M; 27.7 µM (inactive) in the experiment on HCC 2998; > 100 µM (inactive) in the experiment on EKVX. For the same molecule, the GI50 with KM12 is > 100 µM (inactive).

Regarding `COc1cc(Cl)cc(O)c(=O)c1OC`, the GI50 with 786-0 is 61.1 µM (inactive); in the experiment with CCRF-CEM it was 12.7 µM (inactive); in the experiment with SNB-19, 56.1 µM (inactive); in the experiment with NCI-H522 it was 21.9 µM (inactive); in the experiment on MOLT-4, 15.8 µM (inactive); in the experiment on HOP-62 it was 41.1 µM (inactive). In addition, the GI50 in the experiment with TK-10 is 44.1 µM (inactive); in the experiment on Malme-3M it was 54.7 µM (inactive); in the experiment on HCC 2998, 63.4 µM (inactive); in the experiment with EKVX, 25.4 µM (inactive); with KM12 it was 72.8 µM (inactive).

On to `COC(=O)C1CC(c2ccc(Cl)cc2)=NO1` (configuration not stated), for which the GI50 with 786-0, with CCRF-CEM, with A549, with NCI-H522, in the experiment on SK-MEL-5 and with MOLT-4 was > 100 µM (inactive) in each case. Further, the GI50 in the experiment on HOP-62, in the experiment with TK-10, with Malme-3M, in the experiment on HCC 2998, in the experiment on EKVX and in the experiment on KM12 was > 100 µM (inactive) throughout. In the experiment with CAKI-1, the GI50 is 6.17 µM (inactive).

As for `NCCCCCS(=O)(=O)O`, the GI50 with 786-0, in the experiment with CCRF-CEM, in the experiment with SNB-19, in the experiment on A549, in the experiment on NCI-H522 and with SK-MEL-5 was > 100 µM (inactive) each time. The GI50 in the experiment with MOLT-4, in the experiment with HOP-62, in the experiment on TK-10, in the experiment on Malme-3M, in the experiment with HCC 2998 and in the experiment on EKVX was > 100 µM (inactive) in each case. In addition, in the experiment with KM12, the GI50 was > 100 µM (inactive).

With `O=C1c2ccccc2C2(O)Nc3cc(O)ccc3C12O` (configuration not stated), the GI50 in the experiment on 786-0, with CCRF-CEM, in the experiment with SNB-19, in the experiment on A549, with NCI-H522 and in the experiment on SK-MEL-5 was > 100 µM (inactive) throughout. Moreover, the GI50 in the experiment with MOLT-4, with HOP-62, in the experiment with TK-10, with Malme-3M, in the experiment with EKVX and in the experiment on KM12 was > 100 µM (inactive) throughout. Besides, the GI50 in the experiment with CAKI-1 was > 100 µM (inactive).

Turning to `Cc1ccc(C2CC(c3ccco3)=NN2c2ccccc2)o1` (configuration not stated), the GI50 with 786-0, with CCRF-CEM, in the experiment on SNB-19, with A549, in the experiment with NCI-H522 and in the experiment on SK-MEL-5 was > 100 µM (inactive) each time. Further, the GI50 in the experiment on MOLT-4, with HOP-62, with TK-10, in the experiment with Malme-3M, in the experiment on EKVX and with KM12 was > 100 µM (inactive) each time.

Regarding `CCCCN(CCCC)C(=O)C(=O)C(C(=O)C(=O)OC)c1nc2ccccc2o1` (configuration not stated), the GI50 is > 100 µM (inactive) with 786-0; 34.8 µM (inactive) with CCRF-CEM; > 100 µM (inactive) with SNB-19; > 100 µM (inactive) with A549; > 100 µM (inactive) in the experiment on NCI-H522; 62.7 µM (inactive) with SK-MEL-5. Moreover, the GI50 was 29 µM (inactive) with MOLT-4; 74.5 µM (inactive) in the experiment on HOP-62; > 100 µM (inactive) with TK-10; > 100 µM (inactive) in the experiment on Malme-3M; > 100 µM (inactive) in the experiment on HCC 2998; > 100 µM (inactive) with KM12. The GI50 with CAKI-1 was > 100 µM (inactive).

Regarding `Cn1c2ccccc2c(=O)c2c([N+](=O)[O-])ccc(NCCN)c21`, the GI50 with 786-0 was 6.93 µM (inactive); with SNB-19, 14.1 µM (inactive); in the experiment with A549, 11.9 µM (inactive); in the experiment on NCI-H522, 6.92 µM (inactive); in the experiment on SK-MEL-5, 13.2 µM (inactive); in the experiment on MOLT-4 it was 2.06 µM (inactive). For the same molecule, the GI50 was 14 µM (inactive) in the experiment with HOP-62; 14.7 µM (inactive) with TK-10; 14.9 µM (inactive) with Malme-3M; 7.98 µM (inactive) with HCC 2998; 16.5 µM (inactive) with EKVX; 6.43 µM (inactive) in the experiment with KM12. Besides, the GI50 in the experiment with CAKI-1 is 11.9 µM (inactive).

`CCCNCC(=O)O[C@]1(CC)C(=O)OCc2c1cc1n(c2=O)Cc2cc3ccccc3nc2-1`: the GI50 in the experiment with 786-0 was < 0.01 µM (active); in the experiment on CCRF-CEM it was < 0.01 µM (active); in the experiment on SNB-19, 0.0364 µM (active); with A549, 0.0322 µM (active); with NCI-H522, 0.0271 µM (active); with SK-MEL-5, 0.119 µM (active). Besides, the GI50 is < 0.01 µM (active) in the experiment with MOLT-4; < 0.01 µM (active) in the experiment on HOP-62; 4.43 µM (inactive) in the experiment with TK-10; 0.334 µM (active) in the experiment on Malme-3M; 0.661 µM (active) in the experiment on HCC 2998; 25.1 µM (inactive) with EKVX. Further, the GI50 with KM12 is 0.528 µM (active).

Consider `CC(=O)OCc1cc(OC(C)=O)cnc1COC(C)=O`, for which the GI50 in the experiment on 786-0, in the experiment with CCRF-CEM, in the experiment with SNB-19, in the experiment on A549, in the experiment on NCI-H522 and in the experiment with SK-MEL-5 was > 100 µM (inactive) throughout. Further, the GI50 with MOLT-4, with HOP-62, in the experiment on TK-10, with Malme-3M, with EKVX and in the experiment with KM12 was > 100 µM (inactive) in each case. For the same molecule, the GI50 in the experiment with CAKI-1 is > 100 µM (inactive).

Take `O=C1/C(=C/c2ccc(C(=O)O)cc2)CNC/C1=C\c1ccc(C(=O)O)cc1`: the GI50 with 786-0, in the experiment with CCRF-CEM, in the experiment with A549, in the experiment with SK-MEL-5, with MOLT-4 and in the experiment with HOP-62 was > 100 µM (inactive) throughout. The GI50 with TK-10, in the experiment on Malme-3M, in the experiment on HCC 2998 and with KM12 was > 100 µM (inactive) throughout.
